Test results from patent US12686855B2, “Generation of pancreatic endoderm from stem cell derived definitive endoderm” (ASPECT BIOSYSTEMS LTD., priority 2019, dated 2026).

Columns and labels:
[1] = test system: definitive endoderm cells derived from human pluripotent stem cells (hES line SA121); test: Differentiation of definitive endoderm to pancreatic endoderm, flow cytometry (FACS) at PE stage; format: cell-based
Method: (§1) Human embryonic stem (hES) cells line SA121 (Cellectis) are expanded in DEF-CS culture medium (Takara BIO Europe) in fibronectin (Sigma) coated culture flasks (Corning) with 30 ng/ml bFGF (Peprotech) and 10 ng/ml noggin (Peprotech). Cells are single cell passaged with 10 μM Rock inhibitor Y-27632 (Sigma #Y0503) and seeded in shaker flasks or bioreactors (DASBOX, DASGIP, Eppendorf) at a density of 0.5-1 mio/ml and allowed to form clusters under constant stirring conditions.
(§2) After 1-3 days in DEF-CS medium with daily medium change, the clusters are differentiated to DE as described in WO2012/175633 (which is incorporated herein by reference in its entirety). The cell clusters are washed once in RPM11640 (Gibco #61870) and treated with 2-7 μM CHIR99021 (Axon #1386) in RPM11640. After 24 hours the cells were washed with RPM11640 and treated with 25-100 ng/ml Activin A (Peprotech #120-14E) and 2% B27 (Invitrogen #17504-044) in RPM11640 for 3 days with medium change every 24 or 48 hours. Cells are maintained at 37° C. and 5% CO2 in a humidified shaker incubator (Infors) during the differentiation to DE, or in a bioreactor system (DASBOX, DASGIP, Eppendorf).
(§3) Medium was changed daily or every other day. At the end of PE differentiation clusters were analysed by flow cytometry or gene expression analysis (Nanostring). 10 μM AGN193109 (Tocris 5758) was added to the LDN stage of PE differentiation, whereas the remaining part of the protocol was unchanged.

[2] = test system: definitive endoderm cells derived from human pluripotent stem cells (hES line SA121); test: Differentiation of definitive endoderm to pancreatic endoderm, gene expression analysis (Nanostring) on PE10; format: cell-based; conditions: treatment on PE2-3, vs standard protocol
Method: as §1, §2, §3

[3] = test system: definitive endoderm cells derived from human pluripotent stem cells (hES line SA121); test: Differentiation of definitive endoderm to pancreatic endoderm, flow cytometry (FACS) at PE stage; format: cell-based; conditions: PE10
RARβ [4] = molecular target: T1, RARβ (Homo sapiens, UniProt P10826); conditions: RARβ transfected CV-1 cells; equal molar AGN 193109 against ATRA; cited from earlier work
T1 sequence (P10826 1-455): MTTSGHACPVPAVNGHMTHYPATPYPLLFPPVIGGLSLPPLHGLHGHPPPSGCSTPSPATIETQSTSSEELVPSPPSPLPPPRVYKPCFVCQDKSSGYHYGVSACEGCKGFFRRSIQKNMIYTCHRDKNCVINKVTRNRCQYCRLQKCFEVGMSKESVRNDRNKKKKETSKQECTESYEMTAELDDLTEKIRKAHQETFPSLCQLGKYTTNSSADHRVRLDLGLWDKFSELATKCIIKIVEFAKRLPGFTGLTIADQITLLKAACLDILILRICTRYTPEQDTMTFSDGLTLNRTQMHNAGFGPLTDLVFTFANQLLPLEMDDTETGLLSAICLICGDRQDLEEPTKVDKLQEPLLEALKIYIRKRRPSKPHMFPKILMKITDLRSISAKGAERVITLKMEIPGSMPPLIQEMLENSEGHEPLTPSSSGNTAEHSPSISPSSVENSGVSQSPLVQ

[5] = test system: differentiated cells at the beta cell stage; test: Transplantation of differentiated cells at the beta cell stage, immunohistochemistry and quantitative image analysis; format: in vivo; conditions: 8 weeks after transplantation
RARα [6] = molecular target: T2, RARα (Homo sapiens, UniProt P10276); conditions: cited from earlier work
T2 sequence (P10276 1-462): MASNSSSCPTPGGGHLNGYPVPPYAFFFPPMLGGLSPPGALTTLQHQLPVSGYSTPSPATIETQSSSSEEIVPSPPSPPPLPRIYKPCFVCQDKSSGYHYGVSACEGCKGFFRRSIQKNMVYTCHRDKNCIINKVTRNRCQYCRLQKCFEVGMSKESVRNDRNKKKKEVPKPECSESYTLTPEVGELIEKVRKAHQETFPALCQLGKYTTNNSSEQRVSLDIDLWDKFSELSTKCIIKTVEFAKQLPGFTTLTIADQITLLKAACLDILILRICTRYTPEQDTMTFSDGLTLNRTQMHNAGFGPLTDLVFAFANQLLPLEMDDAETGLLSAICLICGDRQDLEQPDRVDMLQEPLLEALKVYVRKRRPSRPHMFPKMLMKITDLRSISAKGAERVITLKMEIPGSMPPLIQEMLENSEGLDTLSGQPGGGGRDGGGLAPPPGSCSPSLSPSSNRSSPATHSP

RARβ [7] = molecular target: T1, RARβ; conditions: cited from earlier work
RARα [8] = molecular target: T2, RARα; conditions: RARα transfected CV-1 cells; equal molar AGN 193109 against ATRA; cited from earlier work
RARγ [9] = molecular target: T3, RARγ (Homo sapiens, UniProt P13631); conditions: cited from earlier work
T3 sequence (P13631 1-454): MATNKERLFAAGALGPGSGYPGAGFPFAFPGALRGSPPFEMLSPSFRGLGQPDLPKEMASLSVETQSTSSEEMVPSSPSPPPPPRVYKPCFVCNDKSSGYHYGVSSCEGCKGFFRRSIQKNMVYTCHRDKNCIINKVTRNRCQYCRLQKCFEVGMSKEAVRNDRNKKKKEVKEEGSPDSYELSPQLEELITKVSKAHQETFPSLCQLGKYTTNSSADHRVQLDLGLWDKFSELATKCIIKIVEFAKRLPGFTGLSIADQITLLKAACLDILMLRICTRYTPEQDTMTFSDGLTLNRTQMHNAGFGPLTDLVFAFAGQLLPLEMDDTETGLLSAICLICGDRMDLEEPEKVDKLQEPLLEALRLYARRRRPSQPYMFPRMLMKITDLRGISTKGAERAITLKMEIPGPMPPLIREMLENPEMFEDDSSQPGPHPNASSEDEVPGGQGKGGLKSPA

[10] = test system: human ES cell or human iPS cell derived PE clusters; test: Further differentiation of PE clusters to beta cell like cells, flow cytometry on Cpep/Nkx6.1 and glucagon; format: cell-based; conditions: for Cpep/Nkx6.1 double positive: extended in vitro culture
Text: The human ES cell or human iPS cell derived PE clusters are washed and further differentiated to endocrine progenitors (EP) and beta cell like cells (BC), using protocols for endocrine and beta cell induction, as described in WO2015/028614, WO2017/144695 and WO/2019/048690, which are all incorporated herein by reference in their entirety.
At the end of BC differentiation clusters were sampled, dissociated to single cells with TrypLE-Select (Gibco 12563-011), fixed in 10% formalin, stained with Cpep/Nkx6.1 and glucagon and analyzed by flow cytometry.

RARγ [11] = molecular target: T3, RARγ; conditions: RARγ transfected CV-1 cells; equal molar AGN 193109 against ATRA; cited from earlier work
[12] = treatment on PE2-3, PE10, standard protocol 52%, FIG. 4

In the case of AM580, the Pdx1/Nkx6.1 double positive [1, 12] is reported as ~ 14%, the DLK1 expression [2] is reported as “marked down regulation” and the NeuroD expression [2] is reported as “marked increase”. For the same compound, the Ngn3 expression [2] was “marked increase”, the Nkx6.1 expression [2] was “marked down regulation” and the PTF1A expression [2] was “marked down regulation”.
With `Cc1ccc(C2=CCC(C)(C)c3ccc(C#Cc4ccc(C(=O)O)cc4)cc32)cc1` [AGN193109] the “Pdx1-only positive cells with increasing concentrations” value ([3]; 1, 3 and 10 μM on PE2-3, FIG. 5A) was “decrease”, the “effect of increasing the concentration from 10 μM to 20 μM on PE induction” value ([3]; PE2-3, FIG. 5B) was “no additional effect” and the “dose dependence of effect on Pdx1/Nkx6.1 double positive cells” value ([3]; range from 0.5 μM to 20 μM on PE2-3) was “dose-responsive”. For the same compound, the “antagonism of ATRA-induced transcription” value (RARβ [4]) was 62%, the Pdx1/Nkx6.1 double positive ([1]; 10 μM for last 2 days of LDN stage (PE2-3), PE10, standard condition around 40%, FIGS. 1A,B) was “at least 70%” and the “Pdx1/Nkx6.1 double negative cells” value ([1]; 10 μM on PE2-3, PE10) was “less than 10%”. The “effect on PE induction (Pdx1/Nkx6.1 double positive) of extending addition from 2 to 4 days in the LDN stage” value ([1]; 10 μM, PE10, FIG. 6A) was “without any negative effect”, the Pdx1/Nkx6.1 double positive ([1]; 1 L bioreactors (DASgip, Eppendorf), 10 μM on PE2-3, PE10, standard protocol 58.4%, not run in parallel) was 82.2% and the “DLK1 expressing pancreatic endoderm (flow cytometry)” value ([1]; added on PE2-3, PE11, standard 13%) was 31%. The “Pdx1/Nkx6.1 double positive cells” value ([1]; rescue of suboptimal PE differentiation, standard 20%, PE10) was 75%, the “percentage of Nkx2.2 positive cells at the PE stage” value ([1]; treatment on PE2-3, PE10, control 2.9%) was “less than 1%” and the Pdx1/Nkx6.1 double positive [1, 12] was 76.9%. For the same compound, the CPA1 expression [2] was “increase”, the DLK1 expression [2] was “increase” and the NeuroD expression [2] was “lower expression”. The Ngn3 expression [2] was “lower expression”, the PTF1A expression [2] was “increase” and the “beta to alpha cell ratio (fraction of insulin positive cells relative to glucagon positive cells)” value [5] was “higher”. For the same compound, the Kd (RARα [6]) was 2 nM, the Kd (RARβ [7]) was 2 nM and the “antagonism of ATRA-induced transcription” value (RARα [8]) was 85%. The Kd (RARγ [9]) was 2 nM, the “Cpep/Nkx6.1 double positive beta like cells” value ([10]; AGN193109 in LDN stage (PE2-3), BC6-9, standard around 35%) was “around 50%” and the Glucagon positive cells ([10]; AGN193109 in LDN stage, BC stage, FIG. 7B) was “not accompanied by an increase”. The Cpep/Nkx6.1 double positive ([10]; BC day 6, standard protocol 53%) was 59%, the Cpep/Nkx6.1 double positive ([10]; BC day 13, standard protocol 27%) was 57% and the “antagonism of ATRA-induced transcription” value (RARγ [11]) was 100%.
